Experimental data taken from PMC7618597, “Dual Nurr1/RXR agonism of valerenic acid and synthetic mimetics enables dimer-selective Nurr1 modulation” (ACS medicinal chemistry letters, 2025).

How the values were obtained:
[1] = target: T1, full-length Nurr1 homodimer (NurRE) (Homo sapiens, UniProt P43354); experiment: Full-length Nurr1 reporter gene assay, homodimer response element NurRE; type: cell-based
T1 construct: full-length human nuclear receptor Nurr1 encoded by pcDNA3.1 -hNurr1-NE; host or cells: HEK293T
T1 sequence (P43354 whole entry): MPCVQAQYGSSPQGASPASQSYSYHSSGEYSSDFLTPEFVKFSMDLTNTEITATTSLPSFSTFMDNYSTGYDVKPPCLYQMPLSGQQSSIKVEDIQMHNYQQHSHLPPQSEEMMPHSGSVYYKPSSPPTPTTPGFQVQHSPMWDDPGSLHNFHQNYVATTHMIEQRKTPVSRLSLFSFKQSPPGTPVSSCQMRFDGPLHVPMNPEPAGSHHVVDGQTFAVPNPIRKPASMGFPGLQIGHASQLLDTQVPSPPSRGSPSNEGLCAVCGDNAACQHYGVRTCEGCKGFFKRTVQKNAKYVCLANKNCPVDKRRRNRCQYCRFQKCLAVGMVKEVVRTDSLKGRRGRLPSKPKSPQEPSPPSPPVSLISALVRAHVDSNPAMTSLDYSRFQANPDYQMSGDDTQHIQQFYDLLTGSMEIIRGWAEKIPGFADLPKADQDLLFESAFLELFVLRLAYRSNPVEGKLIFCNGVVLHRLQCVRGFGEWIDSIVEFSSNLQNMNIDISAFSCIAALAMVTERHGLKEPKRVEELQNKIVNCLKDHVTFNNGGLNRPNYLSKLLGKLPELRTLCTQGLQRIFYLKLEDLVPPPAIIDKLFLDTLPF
Experimental: (§1) Based on these findings, we next determined the effects of 2 and 3 on Nurr1 activity in a cellular setting using reporter constructs for the NGFI-B response element (NBRE), the Nur response element (NurRE), and the direct repeat 5 (DR5)[36]. All three response elements are robustly activated by common Nurr1 agonists[4],[31]. […]
Reporter gene assays for full-length human Nurr1 and RXR. Modulation of full-length human Nurr1 (NR4A2) was studied using pRL-SV40 (1.5 ng/well reporter plasmid) and the previously described4 reporter plasmids pFR-Luc-NBRE (100 ng/well reporter plasmid), pFR-Luc-NurRE (50 ng/well reporter plasmid) or pFR-Luc-DR5 (50 ng/well reporter plasmid). […] Five hours after transfection, the cells wer e incubated with the test compounds in Opti-MEM supplemented with penicillin (100 U/mL), streptomycin (100 μg/mL), and 0.1% DMSO for 15 h before luciferase activity was measured using the Dual-Glo Luciferase Assay System (Promega) according to the manufacturer’s protocol on a Tecan Spark luminometer (Tecan Deutschland GmbH, Germany). Firefly luminescence was divided by Renilla luminescence and multiplied by 1000, resulting in relative light units (RLU) to normalize for transfection efficiency and cell growth. […]

[2] = target: T2, full-length Nurr1 monomer (NBRE) (Homo sapiens, UniProt P43354); experiment: Full-length Nurr1 reporter gene assay, monomer response element NBRE; type: cell-based
T2 construct: full-length human nuclear receptor Nurr1 encoded by pcDNA3.1 -hNurr1-NE; host or cells: HEK293T
T2 sequence (P43354 whole entry): as above
Experimental: as §1
modified Eagle’s medium (DMEM), high glucose supplemented with 10% fetal calf serum (FCS), sodium pyruvate (1 mM), penicillin (100 U/mL), and streptomycin (100 μg/mL) at 37 °C and 5% CO2 and seeded in 96-well plates (3×10^4 cells/well). […] Five hours after transfection, the cells were incubated with the test compounds in Opti-MEM supplemented with penicillin (100 U/mL), streptomycin (100 μg/mL), and 0.1% DMSO for 15 h before luciferase activity was measured using the Dual -Glo Luciferase Assay System (Promega) according to the manufacturer’s protocol on a Tecan Spark l uminometer (Tecan Deutschland GmbH, Germany). Firefly luminescence was divided by Renilla luminescence and multiplied by 1000, resulting in relative light units (RLU) to normalize for transfection efficiency and cell growth. […]
Reporter gene assays for full-length human Nurr1 and RXR. […] Firefly luminescence was divided by Renilla luminescence and multiplied by 1000, resulting in relative light units (RLU) to normalize for transfection efficiency and cell growth. […]

Compound	activation on NurRE [1]	activation on NBRE [2]
Cc1c2c(n(-c3ccc(CC(=O)O)cc3)c1C)CCC(F)(F)C2 [compound 2]	no activation was detectable	no activation was detectable
Cc1c(C)n(-c2ccc(CC(=O)O)cc2)c2ccc(F)cc12 [compound 3]	no activation was detectable	no activation was detectable
